Results as given in the kinase profiling compilation of Christmann-Franck et al. (2016).

tested on: ROCK2 (rat); test: radiometric filter-binding kinase assay; conditions: compound 100.0 µM; ATP 20 µM; accession and sequence are those of the human protein

Going from `Nc1nc2cnc(-c3ccccc3)cn2n1` to `Cc1cccc(C)c1-c1cn2nc(N)nc2cn1`, the inhibition falls from 52% to 19%.

In the case of `Nc1cnc2c(-c3c(F)cccc3F)cccn2c1=O`, the inhibition is reported as 76%.

target: MAPK15 (human) (UniProt Q8TD08); test: radiometric filter-binding kinase assay; conditions: compound 100.0 µM; ATP 5 µM
Sequence (Q8TD08 whole entry, looked up): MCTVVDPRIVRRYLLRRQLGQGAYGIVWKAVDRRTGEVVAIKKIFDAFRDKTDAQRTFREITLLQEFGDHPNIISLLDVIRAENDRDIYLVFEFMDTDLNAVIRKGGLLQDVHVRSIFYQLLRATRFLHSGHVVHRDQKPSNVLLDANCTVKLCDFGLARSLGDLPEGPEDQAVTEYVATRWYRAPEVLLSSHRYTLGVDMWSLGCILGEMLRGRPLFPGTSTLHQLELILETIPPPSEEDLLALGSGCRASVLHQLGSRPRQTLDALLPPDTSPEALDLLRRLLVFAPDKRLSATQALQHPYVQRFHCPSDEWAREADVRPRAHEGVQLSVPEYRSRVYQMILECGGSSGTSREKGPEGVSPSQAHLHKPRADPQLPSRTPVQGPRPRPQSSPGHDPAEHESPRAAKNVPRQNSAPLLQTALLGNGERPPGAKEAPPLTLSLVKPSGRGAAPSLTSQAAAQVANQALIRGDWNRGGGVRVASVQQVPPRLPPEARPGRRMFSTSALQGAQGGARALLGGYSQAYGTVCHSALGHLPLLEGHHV

First: O=c1c(NC(=S)NCc2ccccc2)cnc2[nH]ccn12
Second: O=C(Nc1cnc2[nH]cnn2c1=O)c1ccccc1
The inhibition of the first is lower: 3% for the first, 4% for the second.

Going from `Nc1nc2cnc(-c3ccccc3)cn2n1` to `Cc1cccc(C)c1-c1cn2nc(N)nc2cn1`, the inhibition falls from 74% to 25%.

`Nc1cnc2c(-c3c(F)cccc3F)cccn2c1=O` gave an inhibition of 36%.

target: PIM3 (human) (UniProt Q86V86); test: radiometric filter-binding kinase assay; conditions: compound 100.0 µM; ATP 20 µM

`O=c1c(NC(=S)NCc2ccccc2)cnc2[nH]ccn12` and `O=C(Nc1cnc2[nH]cnn2c1=O)c1ccccc1` are the same in inhibition: 0% for the first, 0% for the second.

First: Nc1nc2cnc(-c3ccccc3)cn2n1
Second: Cc1cccc(C)c1-c1cn2nc(N)nc2cn1
The inhibition of the first is higher: 55% for the first, 26% for the second.

Molecule `Nc1cnc2c(-c3c(F)cccc3F)cccn2c1=O` has an inhibition of 35%.

target: MAPK8 (human) (UniProt P45983); test: radiometric filter-binding kinase assay; conditions: compound 100.0 µM; ATP 20 µM
Sequence (P45983 whole entry, looked up): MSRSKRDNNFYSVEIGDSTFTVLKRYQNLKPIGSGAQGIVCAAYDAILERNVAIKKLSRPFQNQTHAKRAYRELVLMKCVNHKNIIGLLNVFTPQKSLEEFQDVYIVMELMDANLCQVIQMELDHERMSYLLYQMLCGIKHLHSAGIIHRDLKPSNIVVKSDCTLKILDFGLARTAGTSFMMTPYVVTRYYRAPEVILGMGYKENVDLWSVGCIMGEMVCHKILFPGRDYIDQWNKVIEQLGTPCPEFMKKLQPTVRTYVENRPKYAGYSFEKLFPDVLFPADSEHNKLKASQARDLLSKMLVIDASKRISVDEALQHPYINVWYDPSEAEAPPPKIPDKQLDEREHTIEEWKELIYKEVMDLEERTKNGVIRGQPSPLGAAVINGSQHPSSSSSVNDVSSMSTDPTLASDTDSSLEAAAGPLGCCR

`O=c1c(NC(=S)NCc2ccccc2)cnc2[nH]ccn12` and `O=C(Nc1cnc2[nH]cnn2c1=O)c1ccccc1` are the same in inhibition: 0% for the first, 0% for the second.

First: Nc1nc2cnc(-c3ccccc3)cn2n1
Second: Cc1cccc(C)c1-c1cn2nc(N)nc2cn1
The inhibition of the first is higher: 30% for the first, 7% for the second.

`Nc1cnc2c(-c3c(F)cccc3F)cccn2c1=O` gave an inhibition of 41%.

target: SRPK1 (human) (UniProt Q96SB4); test: radiometric filter-binding kinase assay; conditions: compound 100.0 µM; ATP 50 µM

Compared with `O=c1c(NC(=S)NCc2ccccc2)cnc2[nH]ccn12`, `O=C(Nc1cnc2[nH]cnn2c1=O)c1ccccc1` is lower in inhibition: 9% for the first, 0% for the second.

First: Nc1nc2cnc(-c3ccccc3)cn2n1
Second: Cc1cccc(C)c1-c1cn2nc(N)nc2cn1
The inhibition of the first is higher: 41% for the first, 31% for the second.

`Nc1cnc2c(-c3c(F)cccc3F)cccn2c1=O` gave an inhibition of 58%.

target: TTK (human) (UniProt P33981); test: radiometric filter-binding kinase assay; conditions: compound 100.0 µM; ATP 20 µM
Sequence (P33981 whole entry, looked up): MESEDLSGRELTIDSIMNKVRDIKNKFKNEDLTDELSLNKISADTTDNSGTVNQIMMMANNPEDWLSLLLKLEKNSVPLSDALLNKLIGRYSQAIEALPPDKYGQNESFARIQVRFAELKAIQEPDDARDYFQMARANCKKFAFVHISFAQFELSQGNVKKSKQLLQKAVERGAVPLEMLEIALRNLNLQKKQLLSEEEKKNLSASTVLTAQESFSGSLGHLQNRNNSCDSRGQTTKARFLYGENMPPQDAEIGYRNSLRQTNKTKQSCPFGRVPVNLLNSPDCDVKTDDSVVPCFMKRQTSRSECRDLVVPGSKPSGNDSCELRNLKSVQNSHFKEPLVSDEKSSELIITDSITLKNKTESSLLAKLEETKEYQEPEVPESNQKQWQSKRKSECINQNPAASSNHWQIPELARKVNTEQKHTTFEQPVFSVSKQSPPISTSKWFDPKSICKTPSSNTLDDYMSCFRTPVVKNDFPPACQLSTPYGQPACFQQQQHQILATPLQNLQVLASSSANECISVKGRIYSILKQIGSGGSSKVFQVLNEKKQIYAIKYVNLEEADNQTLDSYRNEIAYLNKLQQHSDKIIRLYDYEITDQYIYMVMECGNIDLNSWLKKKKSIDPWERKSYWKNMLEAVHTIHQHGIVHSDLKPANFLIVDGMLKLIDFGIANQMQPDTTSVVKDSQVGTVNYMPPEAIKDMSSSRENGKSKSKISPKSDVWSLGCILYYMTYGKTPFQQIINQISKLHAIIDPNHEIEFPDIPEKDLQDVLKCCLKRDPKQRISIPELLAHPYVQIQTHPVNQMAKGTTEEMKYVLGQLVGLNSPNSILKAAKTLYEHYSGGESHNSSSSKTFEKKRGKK

`O=c1c(NC(=S)NCc2ccccc2)cnc2[nH]ccn12` and `O=C(Nc1cnc2[nH]cnn2c1=O)c1ccccc1` are the same in inhibition: 0% for the first, 0% for the second.

Compared with `Nc1nc2cnc(-c3ccccc3)cn2n1`, `Cc1cccc(C)c1-c1cn2nc(N)nc2cn1` is lower in inhibition: 34% for the first, 20% for the second.

`Nc1cnc2c(-c3c(F)cccc3F)cccn2c1=O` was tested, and the inhibition was 45%.

target: PAK4 (human) (UniProt O96013); test: radiometric filter-binding kinase assay; conditions: compound 100.0 µM; ATP 5 µM
Sequence (O96013 whole entry, looked up): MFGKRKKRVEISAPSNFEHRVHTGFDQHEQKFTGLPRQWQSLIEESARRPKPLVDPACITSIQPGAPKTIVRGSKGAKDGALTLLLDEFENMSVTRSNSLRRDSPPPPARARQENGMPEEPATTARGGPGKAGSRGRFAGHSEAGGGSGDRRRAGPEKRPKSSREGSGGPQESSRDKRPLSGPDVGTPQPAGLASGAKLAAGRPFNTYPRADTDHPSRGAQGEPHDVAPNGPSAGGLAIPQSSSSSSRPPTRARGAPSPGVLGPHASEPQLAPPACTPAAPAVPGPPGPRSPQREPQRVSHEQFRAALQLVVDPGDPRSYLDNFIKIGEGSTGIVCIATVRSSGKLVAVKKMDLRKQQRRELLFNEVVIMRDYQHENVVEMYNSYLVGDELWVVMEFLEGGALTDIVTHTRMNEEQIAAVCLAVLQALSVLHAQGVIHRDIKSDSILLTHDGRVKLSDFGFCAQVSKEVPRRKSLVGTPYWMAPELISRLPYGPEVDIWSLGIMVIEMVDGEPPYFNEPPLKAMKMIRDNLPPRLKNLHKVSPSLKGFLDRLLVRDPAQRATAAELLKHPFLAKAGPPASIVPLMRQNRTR

Compared with `O=c1c(NC(=S)NCc2ccccc2)cnc2[nH]ccn12`, `O=C(Nc1cnc2[nH]cnn2c1=O)c1ccccc1` is lower in inhibition: 18% for the first, 3% for the second.

Going from `Nc1nc2cnc(-c3ccccc3)cn2n1` to `Cc1cccc(C)c1-c1cn2nc(N)nc2cn1`, the inhibition falls from 89% to 0%.

Work on `Nc1cnc2c(-c3c(F)cccc3F)cccn2c1=O` yielded an inhibition of 50%.

target: IRAK4 (human) (UniProt Q9NWZ3); test: radiometric filter-binding kinase assay; conditions: compound 100.0 µM; ATP 20 µM

Compared with `O=c1c(NC(=S)NCc2ccccc2)cnc2[nH]ccn12`, `O=C(Nc1cnc2[nH]cnn2c1=O)c1ccccc1` is lower in inhibition: 6% for the first, 0% for the second.

Compared with `Nc1nc2cnc(-c3ccccc3)cn2n1`, `Cc1cccc(C)c1-c1cn2nc(N)nc2cn1` is lower in inhibition: 80% for the first, 18% for the second.

`Nc1cnc2c(-c3c(F)cccc3F)cccn2c1=O` gave an inhibition of 31%.

target: BRSK1 (human) (UniProt Q8TDC3); test: radiometric filter-binding kinase assay; conditions: compound 100.0 µM; ATP 20 µM

`O=c1c(NC(=S)NCc2ccccc2)cnc2[nH]ccn12` and `O=C(Nc1cnc2[nH]cnn2c1=O)c1ccccc1` are the same in inhibition: 2% for the first, 2% for the second.

Compared with `Nc1nc2cnc(-c3ccccc3)cn2n1`, `Cc1cccc(C)c1-c1cn2nc(N)nc2cn1` is lower in inhibition: 27% for the first, 14% for the second.

In the case of `Nc1cnc2c(-c3c(F)cccc3F)cccn2c1=O`, the inhibition is reported as 22%.

target: JAK2 JH1 JH2 (human) (UniProt O60674); test: radiometric filter-binding kinase assay; conditions: compound 100.0 µM; ATP 5 µM
Sequence (O60674 whole entry, looked up): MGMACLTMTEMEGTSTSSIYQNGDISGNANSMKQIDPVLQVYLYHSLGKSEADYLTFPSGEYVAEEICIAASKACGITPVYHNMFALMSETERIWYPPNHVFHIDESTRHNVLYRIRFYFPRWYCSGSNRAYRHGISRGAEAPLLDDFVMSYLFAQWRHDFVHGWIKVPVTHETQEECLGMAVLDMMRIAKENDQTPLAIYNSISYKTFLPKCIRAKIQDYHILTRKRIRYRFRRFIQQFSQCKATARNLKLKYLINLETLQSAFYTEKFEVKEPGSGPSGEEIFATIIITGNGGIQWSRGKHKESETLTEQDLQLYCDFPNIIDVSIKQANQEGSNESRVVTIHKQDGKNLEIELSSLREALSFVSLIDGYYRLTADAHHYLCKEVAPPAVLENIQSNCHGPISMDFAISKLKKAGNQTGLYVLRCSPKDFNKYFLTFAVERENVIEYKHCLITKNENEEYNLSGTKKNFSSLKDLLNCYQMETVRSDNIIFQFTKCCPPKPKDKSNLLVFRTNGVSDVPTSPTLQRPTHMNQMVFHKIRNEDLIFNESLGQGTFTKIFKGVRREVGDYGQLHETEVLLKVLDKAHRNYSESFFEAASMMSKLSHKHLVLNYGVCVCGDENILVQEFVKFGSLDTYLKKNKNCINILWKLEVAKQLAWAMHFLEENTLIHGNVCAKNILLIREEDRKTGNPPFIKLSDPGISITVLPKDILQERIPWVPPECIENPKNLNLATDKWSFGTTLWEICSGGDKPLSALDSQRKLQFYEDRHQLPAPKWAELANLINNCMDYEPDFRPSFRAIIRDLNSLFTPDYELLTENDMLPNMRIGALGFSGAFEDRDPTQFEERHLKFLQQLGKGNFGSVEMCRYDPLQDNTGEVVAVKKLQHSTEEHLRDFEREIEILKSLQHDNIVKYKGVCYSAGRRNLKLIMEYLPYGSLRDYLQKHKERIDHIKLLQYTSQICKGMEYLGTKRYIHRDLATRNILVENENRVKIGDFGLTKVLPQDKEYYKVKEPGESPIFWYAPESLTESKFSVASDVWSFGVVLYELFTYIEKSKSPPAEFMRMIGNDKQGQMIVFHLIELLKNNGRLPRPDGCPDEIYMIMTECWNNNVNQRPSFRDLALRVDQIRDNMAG

`O=c1c(NC(=S)NCc2ccccc2)cnc2[nH]ccn12` and `O=C(Nc1cnc2[nH]cnn2c1=O)c1ccccc1` are the same in inhibition: 0% for the first, 0% for the second.

Going from `Nc1nc2cnc(-c3ccccc3)cn2n1` to `Cc1cccc(C)c1-c1cn2nc(N)nc2cn1`, the inhibition falls from 76% to 16%.

`Nc1cnc2c(-c3c(F)cccc3F)cccn2c1=O` was tested, and the inhibition was 89%.

target: EPHB2 (human) (UniProt P29323); test: radiometric filter-binding kinase assay; conditions: compound 100.0 µM; ATP 20 µM

Going from `O=c1c(NC(=S)NCc2ccccc2)cnc2[nH]ccn12` to `O=C(Nc1cnc2[nH]cnn2c1=O)c1ccccc1`, the inhibition rises from 3% to 6%.

Compared with `Nc1nc2cnc(-c3ccccc3)cn2n1`, `Cc1cccc(C)c1-c1cn2nc(N)nc2cn1` is lower in inhibition: 30% for the first, 0% for the second.

`Nc1cnc2c(-c3c(F)cccc3F)cccn2c1=O` gave an inhibition of 29%.

target: GSK3B (human) (UniProt P49841); test: radiometric filter-binding kinase assay; conditions: compound 100.0 µM; ATP 5 µM

Compared with `O=c1c(NC(=S)NCc2ccccc2)cnc2[nH]ccn12`, `O=C(Nc1cnc2[nH]cnn2c1=O)c1ccccc1` is lower in inhibition: 13% for the first, 0% for the second.

Going from `Nc1nc2cnc(-c3ccccc3)cn2n1` to `Cc1cccc(C)c1-c1cn2nc(N)nc2cn1`, the inhibition falls from 72% to 27%.

In the case of `Nc1cnc2c(-c3c(F)cccc3F)cccn2c1=O`, the inhibition is reported as 51%.

target: NTRK1 (human) (UniProt P04629); test: radiometric filter-binding kinase assay; conditions: compound 100.0 µM; ATP 20 µM

`O=c1c(NC(=S)NCc2ccccc2)cnc2[nH]ccn12` and `O=C(Nc1cnc2[nH]cnn2c1=O)c1ccccc1` are the same in inhibition: 0% for the first, 0% for the second.

First: Nc1nc2cnc(-c3ccccc3)cn2n1
Second: Cc1cccc(C)c1-c1cn2nc(N)nc2cn1
The inhibition of the first is higher: 61% for the first, 8% for the second.

`Nc1cnc2c(-c3c(F)cccc3F)cccn2c1=O` showed an inhibition of 88%.

target: EEF2K (human) (UniProt O00418); test: radiometric filter-binding kinase assay; conditions: compound 100.0 µM; ATP 5 µM

`O=c1c(NC(=S)NCc2ccccc2)cnc2[nH]ccn12` and `O=C(Nc1cnc2[nH]cnn2c1=O)c1ccccc1` are the same in inhibition: 6% for the first, 6% for the second.

First: Nc1nc2cnc(-c3ccccc3)cn2n1
Second: Cc1cccc(C)c1-c1cn2nc(N)nc2cn1
The inhibition of the first is higher: 36% for the first, 13% for the second.

`Nc1cnc2c(-c3c(F)cccc3F)cccn2c1=O` gave an inhibition of 16%.

target: HIPK1 (human) (UniProt Q86Z02); test: radiometric filter-binding kinase assay; conditions: compound 100.0 µM; ATP 20 µM

`O=c1c(NC(=S)NCc2ccccc2)cnc2[nH]ccn12` and `O=C(Nc1cnc2[nH]cnn2c1=O)c1ccccc1` are the same in inhibition: 0% for the first, 0% for the second.

First: Nc1nc2cnc(-c3ccccc3)cn2n1
Second: Cc1cccc(C)c1-c1cn2nc(N)nc2cn1
The inhibition of the first is higher: 28% for the first, 16% for the second.

For `Nc1cnc2c(-c3c(F)cccc3F)cccn2c1=O`, the inhibition was 11%.

target: CDK2 CCNA2 (human) (UniProt P20248+P24941); test: radiometric filter-binding kinase assay; conditions: compound 100.0 µM; ATP 20 µM

`O=c1c(NC(=S)NCc2ccccc2)cnc2[nH]ccn12` and `O=C(Nc1cnc2[nH]cnn2c1=O)c1ccccc1` are the same in inhibition: 0% for the first, 0% for the second.

First: Nc1nc2cnc(-c3ccccc3)cn2n1
Second: Cc1cccc(C)c1-c1cn2nc(N)nc2cn1
The inhibition of the first is higher: 54% for the first, 17% for the second.

`Nc1cnc2c(-c3c(F)cccc3F)cccn2c1=O` gave an inhibition of 88%.

target: MKNK2 (human) (UniProt Q9HBH9); test: radiometric filter-binding kinase assay; conditions: compound 100.0 µM; ATP 50 µM

First: O=c1c(NC(=S)NCc2ccccc2)cnc2[nH]ccn12
Second: O=C(Nc1cnc2[nH]cnn2c1=O)c1ccccc1
The inhibition of the first is higher: 13% for the first, 10% for the second.

First: Nc1nc2cnc(-c3ccccc3)cn2n1
Second: Cc1cccc(C)c1-c1cn2nc(N)nc2cn1
The inhibition of the first is higher: 66% for the first, 30% for the second.

Molecule `Nc1cnc2c(-c3c(F)cccc3F)cccn2c1=O` has an inhibition of 6%.

target: RIPK2 (human) (UniProt O43353); test: radiometric filter-binding kinase assay; conditions: compound 100.0 µM; ATP 20 µM
Sequence (O43353 whole entry, looked up): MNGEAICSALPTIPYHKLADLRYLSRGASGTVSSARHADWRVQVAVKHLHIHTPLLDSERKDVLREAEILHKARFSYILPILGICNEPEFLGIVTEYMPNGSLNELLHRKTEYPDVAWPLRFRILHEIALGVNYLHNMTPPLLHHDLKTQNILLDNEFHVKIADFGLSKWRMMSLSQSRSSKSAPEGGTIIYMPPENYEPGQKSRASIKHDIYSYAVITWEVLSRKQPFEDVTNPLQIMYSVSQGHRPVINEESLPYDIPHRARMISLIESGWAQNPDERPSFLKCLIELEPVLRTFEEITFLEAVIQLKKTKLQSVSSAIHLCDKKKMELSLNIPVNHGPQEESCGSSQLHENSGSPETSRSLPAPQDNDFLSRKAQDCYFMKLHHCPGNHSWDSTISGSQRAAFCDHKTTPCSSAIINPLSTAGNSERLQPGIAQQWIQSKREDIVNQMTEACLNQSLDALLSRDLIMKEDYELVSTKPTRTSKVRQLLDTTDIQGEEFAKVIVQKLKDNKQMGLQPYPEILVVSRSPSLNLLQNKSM

`O=c1c(NC(=S)NCc2ccccc2)cnc2[nH]ccn12` and `O=C(Nc1cnc2[nH]cnn2c1=O)c1ccccc1` are the same in inhibition: 0% for the first, 0% for the second.

First: Nc1nc2cnc(-c3ccccc3)cn2n1
Second: Cc1cccc(C)c1-c1cn2nc(N)nc2cn1
The inhibition of the first is higher: 56% for the first, 43% for the second.

In the case of `Nc1cnc2c(-c3c(F)cccc3F)cccn2c1=O`, the inhibition is reported as 3%.

target: MAPK10 (human) (UniProt P53779); test: radiometric filter-binding kinase assay; conditions: compound 100.0 µM; ATP 20 µM
Sequence (P53779 whole entry, looked up): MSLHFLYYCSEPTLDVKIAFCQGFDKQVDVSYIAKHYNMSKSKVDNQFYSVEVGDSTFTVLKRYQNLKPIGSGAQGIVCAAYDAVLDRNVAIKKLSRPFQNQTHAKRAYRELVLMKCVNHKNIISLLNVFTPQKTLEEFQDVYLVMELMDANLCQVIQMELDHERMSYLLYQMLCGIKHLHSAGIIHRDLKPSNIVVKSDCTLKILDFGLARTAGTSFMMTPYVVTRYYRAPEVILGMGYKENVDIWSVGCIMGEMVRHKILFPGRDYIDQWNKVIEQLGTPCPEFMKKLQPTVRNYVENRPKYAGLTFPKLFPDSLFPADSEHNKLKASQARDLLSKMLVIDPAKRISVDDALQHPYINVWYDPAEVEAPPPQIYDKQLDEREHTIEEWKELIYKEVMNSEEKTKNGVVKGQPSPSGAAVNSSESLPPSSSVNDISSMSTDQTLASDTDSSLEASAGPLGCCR

`O=c1c(NC(=S)NCc2ccccc2)cnc2[nH]ccn12` and `O=C(Nc1cnc2[nH]cnn2c1=O)c1ccccc1` are the same in inhibition: 0% for the first, 0% for the second.

Going from `Nc1nc2cnc(-c3ccccc3)cn2n1` to `Cc1cccc(C)c1-c1cn2nc(N)nc2cn1`, the inhibition falls from 47% to 17%.

In the case of `Nc1cnc2c(-c3c(F)cccc3F)cccn2c1=O`, the inhibition is reported as 33%.

target: ZAP70 (human) (UniProt P43403); test: radiometric filter-binding kinase assay; conditions: compound 100.0 µM; ATP 5 µM

`O=c1c(NC(=S)NCc2ccccc2)cnc2[nH]ccn12` and `O=C(Nc1cnc2[nH]cnn2c1=O)c1ccccc1` are the same in inhibition: 0% for the first, 0% for the second.

`Nc1nc2cnc(-c3ccccc3)cn2n1` and `Cc1cccc(C)c1-c1cn2nc(N)nc2cn1` are the same in inhibition: 0% for the first, 0% for the second.

In the case of `Nc1cnc2c(-c3c(F)cccc3F)cccn2c1=O`, the inhibition is reported as 1%.
